The experiment concerns murine LPS ARDS model. The experiment can be described thus: Respiratory functions by whole-body plethysmograph, murine LPS ARDS model. Type of experiment: in vivo, mouse. As to conditions: P<0.001. As for the experimental part:
In the ARDS group, mice received Escherichia coli O111:B4 lipopolysaccharide (50 μg in 0.05 mL saline, i.t.), while, in the control group, the animals received an instillation of saline (0.05 mL, i.t.). For intratracheal instillation, mice were slightly anesthetized with isoflurane.
The lipid SPPCT-800 was dissolved in water (low dose—2 mg/ml; high dose—20 mg/ml). For the 24-hour study, two treatment approaches were used. Mice received a single dose of SPPCT-800 (200 mg/kg, per gavage) as prevention (30 minutes before the LPS instillation), or as a single dose of either 20 mg/kg or 200 mg/kg as therapy (3-hour after the LPS instillation). For the 72-hour study, mice received a total of 8 treatments of SPPCT-800 (200 mg/kg) starting at 3-hour after the LPS instillation. Disease progression in mice was assessed by the evaluation of pulmonary functions, blood oxygen saturation, and body weight change. On the terminal day of each study (24 hours or 72 hours), measurement of cytokine levels in the plasma and BALF, and histopathology evaluations were done.
Respiratory Functions. All mice were introduced to the plethysmograph chamber environment. After the acclimatization period, the functional respiratory parameters were assessed by the whole-body plethysmograph (VivoFlow, SCIREQ, Montreal, Canada) at 0 hour (baseline), at 24-hour post-LPS instillation, and at 48 and 72-hour post-LPS instillation. Each measurement was performed with the mouse placed alone in an unrestrained whole-body plethysmography (WBP) chamber to measure respiratory functions. The WBP trace allowed us to determine specific information regarding the breathing pattern, and to derive important information associated with the development of inflammation. The functional respiratory parameters analyzed included respiratory rate, PenH (pulmonary congestion index), and inspiratory/expiratory time measurements. PenH, was used as an index of edema, inflammation and congestion (broncho-restriction).^24
Statistical Analysis. Results are expressed as means±SEM. Comparisons were made on normally distributed data using ANOVA, followed by a Fisher post hoc test to assess the difference between LPS+vehicle group with GraphPad Prism Software version 8.0 (San Diego, CA, USA). Differences were considered statistically significant when P values were less than 0.05. (* Shown difference versus Sham animals and # shown difference versus LPS+Vehicle group. * Means P<0.05, ** P<0.01, *** P<0.001 while # means P<0.05, ##P<0.01 and ###P<0.001).

SMILES strings stand for the structures.

For `CCCCCCCCCCCCCC(=O)OCC(COP(=O)([O-])OCC(COC(=O)CCC)OC(=O)CCC)OC(=O)CCCCCCCCCCCCC.CCCCCCCCCCCCCC(=O)OCC(COP(=O)([O-])OCC(COC(=O)CCC)OC(=O)CCC)OC(=O)CCCCCCCCCCCCC.[Mg+2]` (stereo not shown) [SPPCT-800], where the note is “at 24 hours”, the inspiratory time result is listed as “Significant reductions” and the “pulmonary congestion index (PenH)” value is given as “Significant reductions”. Where the note is “at 48 hours”, the expiratory time entry is listed as “significant reductions” and the “pulmonary congestion index (PenH)” value was “significant reductions”.

The record behind these values is patent US20240091242A1, “LIPIDS THAT REDUCE LUNG DAMAGE, IMPROVE PULMONARY FUNCTION AND DECREASE PRO-INFLAMMATORY CYTOKINES” (Signpath Pharma, Inc., priority 2021, published 2024).
